What was measured:
[1] = system: Eimeria maxima; experiment: Anticoccidial activity against Eimeria maxima in chickens assessed as reduction of oocysts at 8 ppm measured after 8 days by ExMAC assay relative to untreated control; format: functional; parameters: scale not given: the % may be the effect or the level left
[2] = system: Eimeria maxima; experiment: Anticoccidial activity against Eimeria maxima in chickens assessed as reduction of oocysts at 6 ppm measured after 8 days by ExMAC assay relative to untreated control; format: functional; parameters: scale not given: the % may be the effect or the level left
[3] = system: Eimeria maxima; experiment: Anticoccidial activity against Eimeria maxima in chickens assessed as reduction of oocysts at 10 ppm measured after 8 days by ExMAC assay relative to untreated control; format: functional; parameters: scale not given: the % may be the effect or the level left
[4] = target: cGMP-dependent protein kinase (Eimeria tenella, UniProt Q8MMZ8); experiment: Inhibition of Eimeria tenella cGMP-dependent protein kinase
[5] = system: Eimeria tenella; experiment: Anticoccidial activity against Eimeria tenella in chickens assessed as reduction of oocysts at 25 ppm measured after 8 days by ExMAC assay relative to untreated control; format: functional; parameters: scale not given: the % may be the effect or the level left
[6] = system: Eimeria tenella; experiment: Anticoccidial activity against Eimeria tenella in chickens assessed as reduction of oocysts at 12.5 ppm measured after 8 days by ExMAC assay relative to untreated control; format: functional; parameters: scale not given: the % may be the effect or the level left
[7] = system: Eimeria tenella; experiment: Anticoccidial activity against Eimeria tenella in chickens assessed as reduction of oocysts at 8 ppm measured after 8 days by ExMAC assay relative to untreated control; format: functional; parameters: scale not given: the % may be the effect or the level left
[8] = system: Eimeria tenella; experiment: Anticoccidial activity against Eimeria tenella in chickens assessed as reduction of oocysts at 6 ppm measured after 8 days by ExMAC assay relative to untreated control; format: functional; parameters: scale not given: the % may be the effect or the level left
[9] = system: Eimeria tenella; experiment: Anticoccidial activity against Eimeria tenella in chickens assessed as reduction of oocysts at 10 ppm measured after 8 days by ExMAC assay relative to untreated control; format: functional; parameters: scale not given: the % may be the effect or the level left
[10] = system: Eimeria acervulina; experiment: Anticoccidial activity against Eimeria acervulina in chickens assessed as reduction of oocysts at 25 ppm measured after 8 days by ExMAC assay relative to untreated control; format: functional; parameters: scale not given: the % may be the effect or the level left
[11] = system: Eimeria acervulina; experiment: Anticoccidial activity against Eimeria acervulina in chickens assessed as reduction of oocysts at 12.5 ppm measured after 8 days by ExMAC assay relative to untreated control; format: functional; parameters: scale not given: the % may be the effect or the level left
[12] = system: Eimeria acervulina; experiment: Anticoccidial activity against Eimeria acervulina in chickens assessed as reduction of oocysts at 8 ppm measured after 8 days by ExMAC assay relative to untreated control; format: functional; parameters: scale not given: the % may be the effect or the level left
[13] = system: Eimeria acervulina; experiment: Anticoccidial activity against Eimeria acervulina in chickens assessed as reduction of oocysts at 6 ppm measured after 8 days by ExMAC assay relative to untreated control; format: functional; parameters: scale not given: the % may be the effect or the level left
[14] = system: Eimeria acervulina; experiment: Anticoccidial activity against Eimeria acervulina in chickens assessed as reduction of oocysts at 10 ppm measured after 8 days by ExMAC assay relative to untreated control; format: functional; parameters: scale not given: the % may be the effect or the level left
[15] = system: Eimeria mitis; experiment: Anticoccidial activity against Eimeria mitis in chickens assessed as reduction of oocysts at 25 ppm measured after 8 days by ExMAC assay relative to untreated control; format: functional; parameters: scale not given: the % may be the effect or the level left
[16] = system: Eimeria mitis; experiment: Anticoccidial activity against Eimeria mitis in chickens assessed as reduction of oocysts at 12.5 ppm measured after 8 days by ExMAC assay relative to untreated control; format: functional; parameters: scale not given: the % may be the effect or the level left
[17] = system: Eimeria mitis; experiment: Anticoccidial activity against Eimeria mitis in chickens assessed as reduction of oocysts at 8 ppm measured after 8 days by ExMAC assay relative to untreated control; format: functional; parameters: scale not given: the % may be the effect or the level left
[18] = system: Eimeria mitis; experiment: Anticoccidial activity against Eimeria mitis in chickens assessed as reduction of oocysts at 6 ppm measured after 8 days by ExMAC assay relative to untreated control; format: functional; parameters: scale not given: the % may be the effect or the level left
[19] = system: Eimeria mitis; experiment: Anticoccidial activity against Eimeria mitis in chickens assessed as reduction of oocysts at 10 ppm measured after 8 days by ExMAC assay relative to untreated control; format: functional; parameters: scale not given: the % may be the effect or the level left
[20] = system: Eimeria maxima; experiment: Anticoccidial activity against Eimeria maxima in chickens assessed as reduction of oocysts at 25 ppm measured after 8 days by ExMAC assay relative to untreated control; format: functional; parameters: scale not given: the % may be the effect or the level left
[21] = system: Eimeria maxima; experiment: Anticoccidial activity against Eimeria maxima in chickens assessed as reduction of oocysts at 12.5 ppm measured after 8 days by ExMAC assay relative to untreated control; format: functional; parameters: scale not given: the % may be the effect or the level left
[22] = system: Eimeria tenella; experiment: Anticoccidial activity against Eimeria tenella in chickens assessed as reduction of oocysts at 6.25 ppm measured after 8 days by ExMAC assay relative to untreated control; format: functional; parameters: scale not given: the % may be the effect or the level left
[23] = system: Eimeria tenella; experiment: Anticoccidial activity against Eimeria tenella in chickens assessed as reduction of oocysts at 3.1 ppm measured after 8 days by ExMAC assay relative to untreated control; format: functional; parameters: scale not given: the % may be the effect or the level left
[24] = system: Eimeria acervulina; experiment: Anticoccidial activity against Eimeria acervulina in chickens assessed as reduction of oocysts at 6.25 ppm measured after 8 days by ExMAC assay relative to untreated control; format: functional; parameters: scale not given: the % may be the effect or the level left
[25] = system: Eimeria acervulina; experiment: Anticoccidial activity against Eimeria acervulina in chickens assessed as reduction of oocysts at 3.1 ppm measured after 8 days by ExMAC assay relative to untreated control; format: functional; parameters: scale not given: the % may be the effect or the level left
[26] = system: Eimeria mitis; experiment: Anticoccidial activity against Eimeria mitis in chickens assessed as reduction of oocysts at 6.25 ppm measured after 8 days by ExMAC assay relative to untreated control; format: functional; parameters: scale not given: the % may be the effect or the level left
[27] = system: Eimeria mitis; experiment: Anticoccidial activity against Eimeria mitis in chickens assessed as reduction of oocysts at 3.1 ppm measured after 8 days by ExMAC assay relative to untreated control; format: functional; parameters: scale not given: the % may be the effect or the level left
[28] = system: Eimeria maxima; experiment: Anticoccidial activity against Eimeria maxima in chickens assessed as reduction of oocysts at 6.25 ppm measured after 8 days by ExMAC assay relative to untreated control; format: functional; parameters: scale not given: the % may be the effect or the level left
[29] = system: Eimeria maxima; experiment: Anticoccidial activity against Eimeria maxima in chickens assessed as reduction of oocysts at 3.1 ppm measured after 8 days by ExMAC assay relative to untreated control; format: functional; parameters: scale not given: the % may be the effect or the level left
[30] = system: Eimeria maxima; experiment: Anticoccidial activity against Eimeria maxima in chickens assessed as reduction of oocysts at 1 ppm measured after 8 days by ExMAC assay relative to untreated control; format: functional; parameters: scale not given: the % may be the effect or the level left
[31] = system: Eimeria tenella; experiment: Anticoccidial activity against Eimeria tenella in chickens assessed as reduction of oocysts at 2 ppm measured after 8 days by ExMAC assay relative to untreated control; format: functional; parameters: scale not given: the % may be the effect or the level left
[32] = system: Eimeria acervulina; experiment: Anticoccidial activity against Eimeria acervulina in chickens assessed as reduction of oocysts at 2 ppm measured after 8 days by ExMAC assay relative to untreated control; format: functional; parameters: scale not given: the % may be the effect or the level left
[33] = system: Eimeria acervulina; experiment: Anticoccidial activity against Eimeria acervulina in chickens assessed as reduction of oocysts at 1 ppm measured after 8 days by ExMAC assay relative to untreated control; format: functional; parameters: scale not given: the % may be the effect or the level left
[34] = system: Eimeria mitis; experiment: Anticoccidial activity against Eimeria mitis in chickens assessed as reduction of oocysts at 4 ppm measured after 8 days by ExMAC assay relative to untreated control; format: functional; parameters: scale not given: the % may be the effect or the level left
[35] = system: Eimeria mitis; experiment: Anticoccidial activity against Eimeria mitis in chickens assessed as reduction of oocysts at 2 ppm measured after 8 days by ExMAC assay relative to untreated control; format: functional; parameters: scale not given: the % may be the effect or the level left
[36] = system: Eimeria mitis; experiment: Anticoccidial activity against Eimeria mitis in chickens assessed as reduction of oocysts at 1 ppm measured after 8 days by ExMAC assay relative to untreated control; format: functional; parameters: scale not given: the % may be the effect or the level left
[37] = system: Eimeria maxima; experiment: Anticoccidial activity against Eimeria maxima in chickens assessed as reduction of oocysts at 4 ppm measured after 8 days by ExMAC assay relative to untreated control; format: functional; parameters: scale not given: the % may be the effect or the level left
[38] = system: Eimeria maxima; experiment: Anticoccidial activity against Eimeria maxima in chickens assessed as reduction of oocysts at 2 ppm measured after 8 days by ExMAC assay relative to untreated control; format: functional; parameters: scale not given: the % may be the effect or the level left

Chain of cGMP-dependent protein kinase (Q8MMZ8 whole entry): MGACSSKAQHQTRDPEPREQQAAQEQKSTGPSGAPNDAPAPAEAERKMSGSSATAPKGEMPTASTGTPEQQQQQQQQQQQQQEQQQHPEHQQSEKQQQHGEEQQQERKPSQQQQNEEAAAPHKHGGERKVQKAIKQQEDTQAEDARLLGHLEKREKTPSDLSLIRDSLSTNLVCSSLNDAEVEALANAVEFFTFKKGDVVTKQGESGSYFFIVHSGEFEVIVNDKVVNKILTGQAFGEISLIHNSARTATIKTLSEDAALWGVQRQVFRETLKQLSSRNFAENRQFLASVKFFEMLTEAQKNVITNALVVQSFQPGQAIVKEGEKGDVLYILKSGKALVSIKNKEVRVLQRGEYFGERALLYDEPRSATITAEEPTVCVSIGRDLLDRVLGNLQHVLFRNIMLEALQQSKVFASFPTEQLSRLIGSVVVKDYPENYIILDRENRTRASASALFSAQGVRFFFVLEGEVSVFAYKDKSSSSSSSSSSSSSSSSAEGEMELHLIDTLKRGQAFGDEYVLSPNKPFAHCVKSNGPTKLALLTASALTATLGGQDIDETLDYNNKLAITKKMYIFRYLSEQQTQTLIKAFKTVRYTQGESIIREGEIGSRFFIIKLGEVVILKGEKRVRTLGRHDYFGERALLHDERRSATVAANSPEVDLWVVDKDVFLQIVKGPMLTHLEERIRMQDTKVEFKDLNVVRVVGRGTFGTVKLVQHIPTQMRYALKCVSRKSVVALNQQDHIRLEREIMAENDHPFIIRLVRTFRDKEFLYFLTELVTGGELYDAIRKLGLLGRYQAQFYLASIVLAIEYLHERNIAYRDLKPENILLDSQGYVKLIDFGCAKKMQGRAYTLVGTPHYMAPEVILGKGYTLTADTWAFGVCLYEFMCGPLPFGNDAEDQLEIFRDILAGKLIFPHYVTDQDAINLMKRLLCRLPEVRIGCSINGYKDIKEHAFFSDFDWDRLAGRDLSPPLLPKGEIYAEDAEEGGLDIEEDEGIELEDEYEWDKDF

IC50 [4] | SMILES | Activity [1] | Activity [5] | Activity [6] | Activity [7] | Activity [10] | Activity [11] | Activity [12] | Activity [15] | Activity [16] | Activity [17] | Activity [20] | Activity [21] | Activity [22] | Activity [24] | Activity [26] | Activity [28] | further results
0.044 nM | CN1CCC(c2ccn3c(-c4ccnc(N)n4)c(-c4ccc(F)cc4)nc3c2)CC1 | 100% | 100% | 100% | 100% | 100% | 100% | 80% | 100% | 100% | 80% | 100% | 100% | – | – | – | – | Activity [2]: 100%; Activity [3]: 100%; Activity [8]: 100%; Activity [9]: 100%; Activity [13]: 80%; Activity [14]: 100%; Activity [18]: 80%; Activity [19]: 100%
0.11 nM | CCN1CCC(c2ccn3c(-c4ccnc(N)n4)c(-c4ccc(F)cc4)nc3c2)CC1 | 100% | 100% | 100% | 100% | 100% | 80% | 80% | 100% | 100% | 80% | 100% | 100% | – | – | – | – | Activity [2]: <50%; Activity [3]: 100%; Activity [8]: 100%; Activity [9]: 100%; Activity [13]: <50%; Activity [14]: 80%; Activity [18]: 80%; Activity [19]: 80%
0.46 nM | CN(C)CCc1ccn2c(-c3ccnc(N)n3)c(-c3ccc(F)cc3)nc2c1 | – | 100% | 100% | – | 100% | 100% | – | 100% | 80% | – | 100% | 100% | 100% | 80% | <50% | 50% | –
0.17 nM | CCN(CC)Cc1ccn2c(-c3ccnc(N)n3)c(-c3ccc(F)cc3)nc2c1 | – | 80% | 80% | – | 50% | 50% | – | 80% | <50% | – | 80% | 80% | <50% | <50% | 50% | <50% | –
0.28 nM | CC(c1ccn2c(-c3ccnc(N)n3)c(-c3ccc(F)cc3)nc2c1)N(C)C (single isomer, unassigned; enantiomer A) | – | – | – | – | – | – | – | – | – | – | – | – | – | – | – | – | Activity [30]: 50%; Activity [31]: <50%; Activity [32]: <50%; Activity [33]: <50%; Activity [34]: <50%; Activity [35]: <50%; Activity [36]: 50%; Activity [37]: <50%; Activity [38]: 50%

More lines, now with the values behind:

SMILES | IC50 [4] | Activity [1] | Activity [5] | Activity [6] | Activity [7] | Activity [10] | Activity [11] | Activity [12] | Activity [15] | Activity [16] | Activity [17] | Activity [20] | Activity [21] | Activity [22] | Activity [24] | Activity [26] | Activity [28] | further results
CC(c1ccn2c(-c3ccnc(N)n3)c(-c3ccc(F)cc3)nc2c1)N(C)C (stereo not given) | 0.09 nM | – | – | – | – | – | – | – | – | – | – | – | – | 100% | 100% | 100% | <50% | Activity [23]: 100%; Activity [25]: 80%; Activity [27]: 80%; Activity [29]: 100%
CCC(c1ccn2c(-c3ccnc(N)n3)c(-c3ccc(F)cc3)nc2c1)N(C)C (stereo not given) | 0.13 nM | 50% | – | 100% | 50% | – | 100% | 80% | – | 100% | <50% | – | 100% | – | – | – | – | –
CN(C)C(C)(C)c1ccn2c(-c3ccnc(N)n3)c(-c3ccc(F)cc3)nc2c1 | 0.11 nM | 100% | – | – | 100% | – | – | 100% | – | – | <50% | – | – | 100% | 100% | 80% | 80% | –
